Measurements taken from patent US9062041B2 (Bayer Intellectual Property GmbH, priority 2011, dated 2015).

How the values were obtained:
Type in all cases: cell-based
[1] = biological target: EP4 subtype of the human PGE2 receptor (Homo sapiens, UniProt P35408); test: cAMP antagonism test on the human EP4 receptor (HTRF cAMP detection); conditions: selectivity towards hEP4, IC50 measured by cAMP antagonism test
Method in brief: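 Cells expressing human EP4 preincubated 20 min at RT with compound (0.8 nM–16.5 μM), then stimulated with PGE2 (0.3 nM in 3× solution, with IBMX) 60 min at RT. After lysis, cAMP measured by HTRF competition (665/620 nm ratio); antagonism seen as rise in FRET signal.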

[2] = biological target: EP2 subtype of the human PGE2 receptor (Homo sapiens, UniProt P43116); test: cAMP antagonism test on the human EP2 receptor (HTRF cAMP detection); conditions: hEP2 receptor, read-out: Antagonism hEP2 IC50
EP2 subtype of the human PGE2 receptor, sequence (P43116 whole entry): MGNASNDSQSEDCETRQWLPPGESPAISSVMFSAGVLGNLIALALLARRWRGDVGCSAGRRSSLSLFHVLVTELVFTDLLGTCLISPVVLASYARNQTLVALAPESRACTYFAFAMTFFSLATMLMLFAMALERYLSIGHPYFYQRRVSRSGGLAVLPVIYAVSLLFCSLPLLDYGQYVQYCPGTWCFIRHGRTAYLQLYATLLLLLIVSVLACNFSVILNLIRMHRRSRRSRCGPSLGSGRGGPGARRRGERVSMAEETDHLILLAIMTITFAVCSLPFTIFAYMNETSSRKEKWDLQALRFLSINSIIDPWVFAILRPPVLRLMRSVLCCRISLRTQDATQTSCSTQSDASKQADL
Method in brief: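 Cells expressing human EP2 preincubated 20 min at RT with compound (0.8 nM–16.5 μM), then stimulated 60 min with PGE2 (3× solution 1.5 nM) in PBS-IBMX. After 20 min lysis, cAMP measured by competitive HTRF with cAMP-d2 and Eu cryptate anti-cAMP antibody (665/620 nm ratio).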

human PGD receptor = biological target: T1, human PGD receptor (Homo sapiens, UniProt Q13258); test: cAMP antagonism test on the human prostaglandin D receptor (HTRF cAMP detection); conditions: selectivity towards hDP, IC50 measured by cAMP antagonism test
T1 sequence (Q13258 1-359): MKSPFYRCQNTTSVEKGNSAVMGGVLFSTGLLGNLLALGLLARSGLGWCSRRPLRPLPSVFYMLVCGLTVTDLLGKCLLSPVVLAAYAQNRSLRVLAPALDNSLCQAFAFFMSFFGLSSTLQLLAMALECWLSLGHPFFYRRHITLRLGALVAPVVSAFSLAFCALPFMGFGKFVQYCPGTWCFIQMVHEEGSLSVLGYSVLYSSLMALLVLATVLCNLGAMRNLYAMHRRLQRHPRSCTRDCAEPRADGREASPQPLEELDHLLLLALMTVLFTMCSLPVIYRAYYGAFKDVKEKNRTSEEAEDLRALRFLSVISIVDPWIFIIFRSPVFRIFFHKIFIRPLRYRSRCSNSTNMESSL
Method in brief: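 Cells pre-mixed with cAMP-d2 were preincubated with compound (0.8 nM–16.5 μM) for 20 min at RT, then stimulated with 3× PGD2 solution (6 nM, in PBS-IBMX) for 30 min at RT. After lysis (20 min), HTRF read at 665/620 nm; antagonism seen as rise in FRET ratio.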

EP4 subtype of the human PGE2 receptor, sequence (P35408 whole entry): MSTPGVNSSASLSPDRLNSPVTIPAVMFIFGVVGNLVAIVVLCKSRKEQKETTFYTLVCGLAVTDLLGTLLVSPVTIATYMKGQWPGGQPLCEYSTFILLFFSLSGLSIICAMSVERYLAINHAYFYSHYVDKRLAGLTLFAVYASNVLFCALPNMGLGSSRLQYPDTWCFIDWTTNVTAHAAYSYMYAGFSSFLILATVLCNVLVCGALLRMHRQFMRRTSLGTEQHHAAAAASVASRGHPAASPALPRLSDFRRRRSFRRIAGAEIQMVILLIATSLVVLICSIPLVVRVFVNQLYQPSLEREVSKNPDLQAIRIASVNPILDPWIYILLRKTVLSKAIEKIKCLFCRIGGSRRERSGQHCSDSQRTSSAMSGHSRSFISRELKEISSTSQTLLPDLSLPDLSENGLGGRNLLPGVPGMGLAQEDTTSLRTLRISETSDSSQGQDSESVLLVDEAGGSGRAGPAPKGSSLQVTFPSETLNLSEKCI

| Structure (SMILES) | Selectivity hEP2/hEP4 [1] | IC50 [2] | Selectivity hEP2/hDP (human PGD receptor) |
| --- | --- | --- | --- |
| COCCNC(=O)c1ccc2nn(CC3CCN(C(=O)c4ccc(-n5ccnc5)cc4)CC3)cc2c1C [Example 34, 2-({1-[4-(1H-imidazol-1-yl)-benzoyl]piperidin-4-yl}methyl)-N-(2-methoxyethyl)-4-methyl-2H-indazol-5-carboxamide] | xxx (xxx > 100) | 134 nM | xxx (xxx > 100) |
| Cc1c(C(=O)NCCOC(F)(F)F)ccc2nn(CC3CCN(C(=O)c4ccc(Cl)cc4)CC3)cc12 [Example 107, 2-{[1-(4-chlorobenzoyl)piperidin-4-yl]methyl}-4-methyl-N-[2-(trifluoromethoxy)ethyl]-2H-indazol-5-carboxamide] | xxx (xxx > 100) | 11.4 nM | xxx (xxx > 100) |
| Cc1c(C(=O)NCCOC(C)C)ccc2nn(CC3CCN(C(=O)c4ccc(Oc5ccc(F)cc5)cc4)CC3)cc12 [Example 98, 2-({1-[4-(4-fluoro-phenoxy)benzoyl]-piperidin-4-yl}-methyl)-N-(2-isopropoxyethyl)-4-methyl-2H-indazol-5-carboxamide] | xxx (xxx > 100) | 7.07 nM | xxx (xxx > 100) |
| Cc1c(C(=O)NCCOC(C)C)ccc2nn(CC3CCN(C(=O)c4ccc(C5CC5)cc4)CC3)cc12 [Example 101, 2-{[1-(4-cyclopropyl-benzoyl)piperidin-4-yl]methyl}-N-(2-isopropoxyethyl)-4-methyl-2H-indazol-5-carboxamide] | xxx (xxx > 100) | 6.58 nM | xxx (xxx > 100) |
| Cc1c(C(=O)NCCSC(F)(F)F)ccc2nn(CC3CN(C(=O)c4ccc(Cl)cc4)C3)cc12 [Example 127, 2-{[1-(4-chlorobenzoyl)azetidin-3-yl]methyl}-4-methyl-N-{2-[(trifluoromethyl)sulphanyl]ethyl}-2H-indazol-5-carboxamide] | xxx (xxx > 100) | 55.6 nM | xxx (xxx > 100) |
| Cc1c(C(=O)NCCOC(C)(C)C)ccc2nn(CC3CCN(C(=O)c4ccc(Oc5ccc(C(F)(F)F)cc5)cc4)CC3)cc12 [Example 114, N-(2-tert-butoxyethyl)-4-methyl-2-[(1-{4-[4-(trifluoromethyl)-phenoxy]benzoyl}-piperidin-4-yl)methyl]-2H-indazol-5-carboxamide] | xxx (xxx > 100) | 6.08 nM | xxx (xxx > 100) |
| Cc1c(C(=O)NCC(F)(F)F)ccc2nn(CC3CN(C(=O)c4ccc(C(F)(F)F)cc4F)C3)cc12 [Example 131, 2-({1-[2-fluoro-4-(trifluoromethyl)benzoyl]azetidin-3-yl}methyl)-4-methyl-N-(2,2,2-trifluoroethyl)-2H-indazol-5-carboxamide] | xx (xx: 10-100) | 228 nM | xx (xx: 10-100) |
| COCCNC(=O)c1ccc2nn(CC3CCN(C(=O)c4ccc(-c5ccccc5F)cc4)CC3)cc2c1C [Example 47, 2-({1-[(2′-fluoro-biphenyl-4-yl)-carbonyl]piperidin-4-yl}methyl)-N-(2-methoxyethyl)-4-methyl-2H-indazol-5-carboxamide] | xxx (xxx > 100) | 5.61 nM | xxx (xxx > 100) |
| Cc1c(C(=O)NCC2COCCO2)ccc2nn(CC3CN(C(=O)c4ccc(Cl)cc4)C3)cc12 (single isomer, unassigned) [Example 143, (S or R)-2-{[1-(4-chlorobenzoyl)azetidin-3-yl]methyl}-N-(1,4-dioxan-2-ylmethyl)-4-methyl-2H-indazol-5-carboxamide] | xxx (xxx > 100) | 36.8 nM | xxx (xxx > 100) |
| COCCNC(=O)c1ccc2nn(CC3CCN(C(=O)c4ccc(C(F)(F)F)cc4F)CC3)cc2c1C [Example 10, 2-({1-[2-fluoro-4-(trifluoromethyl)benzoyl]piperidin-4-yl}methyl)-N-(2-methoxy-ethyl)-4-methyl-2H-indazol-5-carboxamide] | xxx (xxx > 100) | 8.67 nM | xxx (xxx > 100) |

Results, then the compound that gave them:

| Selectivity hEP2/hEP4 [1] | IC50 [2] | Selectivity hEP2/hDP (human PGD receptor) | Structure (SMILES) |
| --- | --- | --- | --- |
| xxx (xxx > 100) | 25.1 nM | xxx (xxx > 100) | COCCNC(=O)c1cc2cn(CC3CCN(C(=O)c4ccc(Cl)c(C(F)(F)F)c4)CC3)nc2cc1C [Example 209, 2-({1-[4-chloro-3-(trifluoromethyl)benzoyl]piperidin-4-yl}methyl)-N-(2-methoxyethyl)-6-methyl-2H-indazol-5-carboxamide] |
| xxx (xxx > 100) | 26.3 nM | xxx (xxx > 100) | COc1ccc(-c2ccc(C(=O)N3CCC(Cn4cc5c(C)c(C(=O)NCC(F)(F)F)ccc5n4)CC3)cc2)c(C)c1 [Example 318, 2-({1-[(4′-methoxy-2′-methylbiphenyl-4-yl)carbonyl]piperidin-4-yl}methyl)-4-methyl-N-(2,2,2-trifluoroethyl)-2H-indazol-5-carboxamide] |
| xxx (xxx > 100) | 7.77 nM | xxx (xxx > 100) | COCCNC(=O)c1ccc2nn(CC3CCN(C(=O)c4ccc(-c5cccc(OC)n5)cc4)CC3)cc2c1C [Example 378, N-(2-methoxyethyl)-2-({1-[4-(6-methoxypyridin-2-yl)benzoyl]piperidin-4-yl}methyl)-4-methyl-2H-indazol-5-carboxamide] |
| xxx (xxx > 100) | 64.2 nM | xxx (xxx > 100) | COCCNC(=O)c1cc2cn(CC3CN(C(=O)c4ccc(C(F)(F)F)cc4F)C3)nc2cc1C [Example 182, 2-({1-[2-fluoro-4-(trifluoromethyl)benzoyl]azetidin-3-yl}methyl)-N-(2-methoxy-ethyl)-6-methyl-2H-indazol-5-carboxamide] |
| xxx (xxx > 100) | 57.4 nM | xxx (xxx > 100) | COC(C)CNC(=O)c1ccc2nn(CC3CN(C(=O)c4ccc(Oc5ccc(F)cc5)cc4)C3)cc2c1C (racemic) [Example 147, (+/−)-2-({1-[4-(4-fluorophenoxy)benzoyl]azetidin-3-yl}methyl)-N-(2-methoxypropyl)-4-methyl-2H-indazol-5-carboxamide] |
| xxx (xxx > 100) | 64.9 nM | xxx (xxx > 100) | COCCNC(=O)c1ccc2nn(CC3CN(C(=O)c4ccc(Cl)cc4)C3)cc2c1OC [Example 214, 2-{[1-(4-chlorobenzoyl)azetidin-3-yl]methyl}-4-methoxy-N-(2-methoxyethyl)-2H-indazol-5-carboxamide] |
| xxx (xxx > 100) | 109 nM | xxx (xxx > 100) | COc1c(C(=O)NCCN2CCOCC2)ccc2nn(CC3CN(C(=O)c4ccc(Cl)cc4)C3)cc12 [Example 258, 2-{[1-(4-chlorobenzoyl)azetidin-3-yl]methyl}-4-methoxy-N-(2-morpholinoethyl)-2H-indazol-5-carboxamide] |
| xx (xx: 10-100) | 235 nM | xx (xx: 10-100) | Cc1c(C(=O)NCCSC(F)(F)F)ccc2nn(C[C@@H]3CCN(C(=O)c4ccc(OC(F)(F)F)cc4)C3)cc12 [Example 221, 4-methyl-2-({(R)-1-[4-(trifluoromethoxy)benzoyl]pyrrolidin-3-yl}methyl)-N-{2-[(trifluoromethyl)sulphanyl]ethyl}-2H-indazol-5-carboxamide] |
